Consider 23 compounds from PubChem BioAssay (NCI).

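Cells were grown in 96-well plates and exposed to each compound for 48 hours at five concentrations; endpoints were interpolated linearly between bracketing concentrations, or set to the highest concentration if not reached. Here, GI50 denotes the concentration required for 50% inhibition of growth. TGI: concentration producing complete growth inhibition.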

Among the test systems are T-47D breast; MCF7 breast; SK-MEL-28 melanoma; NCI/ADR-RES ovarian; HCT-15 colon; TK-10 renal; RPMI-8226 leukemia; KM20L2 colon; DMS 273 small cell lung; M19-MEL melanoma; NCI-H460 lung; DLD-1 colon.
Holding throughout (experiment): growth of human tumour cells (NCI), 48 h

As to `NS(=O)(=O)c1ccc(C(=O)O)cc1`, the TGI in the test on T-47D breast, with MCF7 breast, in the test with SK-MEL-28 melanoma, in the test on NCI/ADR-RES ovarian, with HCT-15 colon and in the test on TK-10 renal was more than 100 µM throughout. Besides, the TGI in the test with RPMI-8226 leukemia was more than 100 µM.
Take `ClCCN(CC#CCCCC#CCN(CCCl)CCCl)CCCl`: the TGI turned out to be 27.7 µM with KM20L2 colon; 37.5 µM in the test with MCF7 breast; 38.6 µM in the test on SK-MEL-28 melanoma; 58.1 µM in the test with NCI/ADR-RES ovarian; 27.2 µM with HCT-15 colon; 41 µM in the test on TK-10 renal. Further, the TGI with RPMI-8226 leukemia came out at 13.4 µM; in the test on DMS 273 small cell lung it was 16.6 µM; with M19-MEL melanoma it was 29.5 µM; in the test with NCI-H460 lung it was 16.3 µM; in the test with DLD-1 colon, 35.7 µM.
For `CC1(C)CCc2cc3c(cc2O1)OC(C)(C)CC3=O`, the TGI in the test on HCT-15 colon, in the test with RPMI-8226 leukemia, with DMS 273 small cell lung, in the test with M19-MEL melanoma, in the test with NCI-H460 lung and in the test with DLD-1 colon was more than 100 µM in each case.
As to `Cc1c2ccccc2c(CSC(=N)N)c2ccccc12`, the TGI was determined as 5.32 µM with T-47D breast; 0.518 µM in the test on MCF7 breast; 0.809 µM with SK-MEL-28 melanoma; 0.924 µM in the test on NCI/ADR-RES ovarian; 1.96 µM with HCT-15 colon; 0.667 µM in the test with TK-10 renal. The TGI was 0.558 µM with RPMI-8226 leukemia and 0.374 µM in the test on NCI-H460 lung.
Regarding `N=C(N)SC(c1ccccc1)c1ccccc1`, the TGI is 22.6 µM with T-47D breast; 30 µM in the test with MCF7 breast; 18.6 µM in the test with SK-MEL-28 melanoma; 47 µM with NCI/ADR-RES ovarian; 40.7 µM in the test with HCT-15 colon; 28.2 µM in the test with TK-10 renal. Also, the TGI is 31.7 µM with RPMI-8226 leukemia and 37.1 µM in the test on NCI-H460 lung.
On to `CC(C)(c1ccccc1)c1ccc(Oc2ccc3c(c2)-c2nc-3nc3[nH]c(nc4nc(nc5[nH]c(n2)c2ccc(Oc6ccc(C(C)(C)c7ccccc7)cc6)cc52)-c2cc(Oc5ccc(C(C)(C)c6ccccc6)cc5)ccc2-4)c2ccc(Oc4ccc(C(C)(C)c5ccccc5)cc4)cc32)cc1`, for which the TGI in the test with KM20L2 colon, in the test on SK-MEL-28 melanoma, in the test with TK-10 renal, in the test on RPMI-8226 leukemia, with DMS 273 small cell lung and with M19-MEL melanoma was more than 100 µM in each case. The TGI in the test on NCI-H460 lung and in the test on DLD-1 colon was more than 100 µM each time.
Take `Cn1c(=O)c2c(nc(N3CCOCC3)n2CCCNCC(O)c2ccc(O)c(O)c2)n(C)c1=O` (centres undefined): the TGI in the test on T-47D breast, with MCF7 breast, with SK-MEL-28 melanoma, with NCI/ADR-RES ovarian, in the test on HCT-15 colon and in the test with TK-10 renal was more than 100 µM in each case. Besides, the TGI with RPMI-8226 leukemia and in the test with NCI-H460 lung was more than 100 µM each time.
Turning to `CC(C)C(C)C(O)C(O)C(C)C1CCC2C3COC(=O)C4CC(O)C(O)CC4(C)C3CCC12C` (centres undefined), the TGI in the test on T-47D breast, in the test on MCF7 breast, in the test on SK-MEL-28 melanoma, in the test on NCI/ADR-RES ovarian, with HCT-15 colon and in the test with TK-10 renal was more than 100 µM throughout. In the test with NCI-H460 lung, this compound had a TGI of more than 100 µM.
As to `CC1OC1P(=O)(O)O` (centres undefined), the TGI in the test on T-47D breast, in the test on MCF7 breast, in the test with SK-MEL-28 melanoma, in the test with HCT-15 colon, in the test with TK-10 renal and with RPMI-8226 leukemia was more than 100 µM in each case. In the test on NCI-H460 lung, this compound came in with a TGI of more than 100 µM.
Turning to `Cn1ncc2c(=O)[nH]c(-c3ccccc3)nc21`, the TGI in the test with KM20L2 colon, with SK-MEL-28 melanoma, in the test on HCT-15 colon, in the test with TK-10 renal, in the test on RPMI-8226 leukemia and in the test on DMS 273 small cell lung was more than 100 µM throughout. The compound further gave a TGI in the test on DLD-1 colon of more than 100 µM.
Regarding `Cc1cc(N2CCCCC2)nc(NCc2cc(Nc3ccnc4cc(Cl)ccc34)ccc2F)n1`, the GI50 is 1.26 µM in the test with T-47D breast; 0.298 µM in the test with MCF7 breast; 2 µM in the test on NCI/ADR-RES ovarian; 1.84 µM in the test on HCT-15 colon; 1.96 µM in the test with TK-10 renal; 1.88 µM with RPMI-8226 leukemia. Moreover, in the test with NCI-H460 lung, the GI50 is 1.99 µM. Also, the TGI is 2.99 µM in the test with T-47D breast; 1.46 µM in the test with MCF7 breast; 4.74 µM with NCI/ADR-RES ovarian; 3.8 µM in the test with HCT-15 colon; 3.67 µM with TK-10 renal; 4.55 µM with RPMI-8226 leukemia. In addition, in the test with NCI-H460 lung, the TGI worked out at 4.17 µM.
In the case of `COc1ccc2c(c1)C(=O)c1c-2n(CCCCl)c(=O)c2cc([N+](=O)[O-])ccc12`, the TGI is more than 100 µM in the test on T-47D breast, more than 100 µM with SK-MEL-28 melanoma, more than 100 µM in the test on HCT-15 colon and 1.6 µM in the test on RPMI-8226 leukemia. Further, the GI50 with MCF7 breast was less than 0.01 µM; in the test with SK-MEL-28 melanoma it was 2.64 µM; in the test on NCI/ADR-RES ovarian, 0.0815 µM; in the test on HCT-15 colon, 0.0575 µM; in the test with TK-10 renal it was 0.639 µM; in the test on RPMI-8226 leukemia, 0.075 µM. Also, the GI50 in the test on NCI-H460 lung is less than 0.0178 µM.
Consider `CCCCC1CCCCCCc2[nH]c(/C=C3\N=C(c4ccc[nH]4)C=C3OC)cc21` (centres undefined), for which the TGI in the test with T-47D breast was 2.06 µM; with MCF7 breast, 1.11 µM; in the test with SK-MEL-28 melanoma, 0.492 µM; in the test with NCI/ADR-RES ovarian, 0.806 µM; in the test with HCT-15 colon it was 1.9 µM; in the test on TK-10 renal it was 3.18 µM. The values for the TGI in the test with RPMI-8226 leukemia and with NCI-H460 lung were 0.226 µM and 2.92 µM, respectively.
Turning to `CC1(C)CCCC2(C)C3=C(CCC12)C(=O)OC3` (centres undefined), the TGI in the test on T-47D breast, in the test with MCF7 breast, in the test on SK-MEL-28 melanoma, in the test on NCI/ADR-RES ovarian, with HCT-15 colon and with TK-10 renal was more than 100 µM in each case. In the test on RPMI-8226 leukemia, this compound yielded a TGI of 68.5 µM.
For `COc1ccc(C(=O)NNC(=O)c2nsc3ccccc23)cc1`, the TGI in the test with KM20L2 colon, in the test on SK-MEL-28 melanoma, in the test on HCT-15 colon, in the test with TK-10 renal, in the test with RPMI-8226 leukemia and with DMS 273 small cell lung was more than 100 µM throughout. Also, the TGI in the test on M19-MEL melanoma is more than 100 µM.
`CCc1cc(C)cc2[n+]1CC=C2C`: the TGI in the test with KM20L2 colon, in the test with SK-MEL-28 melanoma, in the test on TK-10 renal, in the test on DMS 273 small cell lung, in the test with M19-MEL melanoma and in the test with NCI-H460 lung was more than 100 µM in each case. The TGI in the test with DLD-1 colon was more than 100 µM.
For `COC(=O)C12OCC34C(CC5C(C)C6=CC(=O)OC6=CC5(C)C3C(O)C1O)OC(=O)C(OC(C)=O)C24` (centres undefined), the TGI with KM20L2 colon worked out at 33.3 µM; in the test with SK-MEL-28 melanoma, 30.1 µM; in the test on HCT-15 colon it was 42.5 µM; in the test on TK-10 renal, 31.4 µM; with RPMI-8226 leukemia it was 40.5 µM; with DMS 273 small cell lung it was 30.2 µM. Moreover, the TGI was 40.9 µM in the test with M19-MEL melanoma, 51.8 µM in the test with NCI-H460 lung and 25.3 µM in the test with DLD-1 colon.
For `CCCCCCCCCCCCCCC(C(=O)[O-])[n+]1ccccc1` (centres undefined), the TGI with T-47D breast was more than 100 µM; in the test with MCF7 breast, 50.9 µM; in the test on SK-MEL-28 melanoma, more than 100 µM; in the test with NCI/ADR-RES ovarian, more than 100 µM; in the test with HCT-15 colon it was more than 100 µM; in the test with TK-10 renal it was 28.8 µM. Further, the TGI in the test on RPMI-8226 leukemia and in the test on NCI-H460 lung was more than 100 µM throughout.
Consider `NCc1ccc(O)c(O)c1O`, for which the TGI with KM20L2 colon is more than 80.9 µM; with T-47D breast it was 71.6 µM; in the test with MCF7 breast, 36.3 µM; in the test on SK-MEL-28 melanoma, more than 100 µM; in the test on HCT-15 colon, 47.7 µM; with TK-10 renal, more than 100 µM. Moreover, the TGI in the test on RPMI-8226 leukemia was determined as 64.8 µM; in the test on DMS 273 small cell lung, 31 µM; with M19-MEL melanoma it was 26.9 µM; with NCI-H460 lung, 34 µM; in the test with DLD-1 colon, 37.2 µM.
Take `Cc1nc2ccccc2c(=O)n1Nc1ccc(C(=O)O)cc1`: the TGI with KM20L2 colon, in the test on MCF7 breast, in the test on SK-MEL-28 melanoma, with NCI/ADR-RES ovarian, in the test on HCT-15 colon and with RPMI-8226 leukemia was more than 100 µM each time. In addition, the TGI in the test on DMS 273 small cell lung, in the test on M19-MEL melanoma, in the test with NCI-H460 lung and with DLD-1 colon was more than 100 µM each time.
For `O=C(Nc1ccc(-n2ccc3c(NC(=O)c4ccccc4)ncnc32)cc1)Nc1ccc(Cl)c(C(F)(F)F)c1`, the GI50 in the test on T-47D breast was 2.27 µM; with MCF7 breast it was 1.64 µM; in the test on SK-MEL-28 melanoma, 1.93 µM; in the test on NCI/ADR-RES ovarian it was 2.41 µM; with HCT-15 colon, 0.765 µM; in the test with TK-10 renal, 1.8 µM. Besides, the figures for the GI50 in the test on RPMI-8226 leukemia and in the test with NCI-H460 lung were 1.03 µM and 1.35 µM, respectively. Besides, the TGI in the test on T-47D breast came to 5.73 µM; with MCF7 breast it was 3.24 µM; in the test on SK-MEL-28 melanoma it was 4.46 µM; in the test on NCI/ADR-RES ovarian, 8.55 µM; in the test on HCT-15 colon it was 2.19 µM; with TK-10 renal, 4.95 µM. Besides, the results for the TGI in the test with RPMI-8226 leukemia and in the test on NCI-H460 lung were 2.84 µM and 3.06 µM, respectively.
Regarding `O=C1CC(c2ccccc2)NCCCCN2CC(CN1)C(C(O)c1ccccc1)C2=O` (centres undefined), the TGI with T-47D breast, with MCF7 breast, in the test on SK-MEL-28 melanoma, in the test with NCI/ADR-RES ovarian, in the test on HCT-15 colon and in the test on TK-10 renal was more than 100 µM throughout. In the test on NCI-H460 lung, this compound had a TGI of more than 100 µM.
With `Nc1ccc([As](=O)(O)O)cc1`, the TGI in the test with T-47D breast, with MCF7 breast, in the test on SK-MEL-28 melanoma, with NCI/ADR-RES ovarian, in the test with HCT-15 colon and in the test on TK-10 renal was more than 100 µM each time. The TGI in the test with NCI-H460 lung is more than 100 µM.
